Broadly, the Km is the concentration of substrate that gives half-maximal velocity.

The record followed here is PMC11314366, “Unveiling the Catalytic Roles of DsBBS1 and DsBBS2 in the Bibenzyl Biosynthesis of Dendrobium sinense” (Molecules, 2024).

In the experiment the test system is DsBBS2. As to the kind of experiment: HPLC of resveratrol formed, nonlinear curve fitting. It is filed as biochemical, Dendrobium sinense. As to conditions: 0.5 mM malonyl-CoA, 50 mM Hepes, 37 °C, 30 min; p-coumaroyl-CoA 0.5-5.0 mM.

For the compound `CC(C)(COP(=O)(O)OP(=O)(O)OC[C@H]1O[C@@H](n2cnc3c(N)ncnc32)[C@H](O)[C@@H]1OP(=O)(O)O)[C@@H](O)C(=O)NCCC(=O)NCCSC(=O)/C=C/c1ccc(O)cc1` [p-coumaroyl-CoA], the Km was found to be 2050 ± 310 µM.
